Laboratory results published in patent US9822091B2, “Method for producing ellagic acid composition” (KAO CORPORATION, priority 2013, dated 2017).

Assays:
[1] = Free ellagic acid dissolved in the aqueous medium of the heat-treated solution (HPLC quantification); format: physicochemical
Procedure: (§1) Free ellagic acid was quantified by a gradient method using a high-performance liquid chromatograph manufactured by Hitachi, Ltd. with a column Cadenza CD-C18 (4.6 mmφ×150 mm, 3 μm) manufactured by Imtakt Corporation at a column temperature of 40° C. A 0.05 mol/L aqueous solution of acetic acid was used as a mobile phase solution A, and acetonitrile was used as a mobile phase solution B, respectively, and they were delivered at 1.0 mL/min.
(§2) The sample injection volume was 10 μL, and quantification was carried out based on an absorbance at a wavelength of 254 nm.
Solubilization ratio (%) of free ellagic acid=[(Mass of free ellagic acid dissolved in water or aqueous medium)/(Mass of free ellagic acid in material for heat treatment)]×100
The solution in the slurry supply tank was fed to a stainless-steel flow reactor having an inner volume of 100 mL (manufactured by Nitto Koatsu Co., Ltd.) at 100 mL/min, and was subjected to heat treatment at 110° C. (mean residence time: 1 minute). The pressure was adjusted to 0.3 MPa (gauge pressure) with an outlet valve. […] The cooling rate determined from the time of cooling from 110° C. to 90° C. was 7.88° C./s. A part of the heat-treated solution was sampled, and the amount of free ellagic acid dissolved in the aqueous medium was measured to determine a solubilization ratio.

[2] = Evaluation of solubility: free ellagic acid dissolved in water from the dried ellagic acid composition; format: physicochemical
Procedure: as §1, §2
The solubility of free ellagic acid in water in an ellagic acid composition after drying was determined by: adding the ellagic acid composition to distilled water so that the amount of solids was one in an aqueous solution or a suspension before drying; shaking the mixture at 25° C. for 5 minutes; filtering the resultant with a cellulose acetate membrane filter having a pore size of 0.2 μm; and measuring the concentration of ellagic acid dissolved therein.
Solubilization ratio (%) of free ellagic acid=[(Mass of free ellagic acid dissolved in water or aqueous medium)/(Mass of free ellagic acid in material for heat treatment)]×100 […]

## O=c1oc2c(O)c(O)cc3c(=O)oc4c(O)c(O)cc1c4c23 [Comparative Example 1, ellagic acid dihydrate]
[1]
  Solubilization ratio: 8%
[1]; heat-treated solution before drying, 25° C.
  Concentration of free ellagic acid dissolved in aqueous medium (25° C.): 6000 ng/mL
[2]; 5 min
  Solubilization ratio: 6%
[2]; composition powder after freeze or spray drying, redissolved in distilled water, shaken 5 minutes at 25° C., 0.2 μm filter
  Concentration of free ellagic acid dissolved in water (25° C.): 5000 ng/mL
